From publication PMC10845965, “Gold(I) ion and the phosphine ligand are necessary for the anti-Toxoplasma gondii activity of auranofin” (Microbiology Spectrum, 2024)
pIC50: −log10 of the molar value. Where “and” joins values, the source holds several entries; their conditions need not be identical. Equal values may be shown once. Entries after “also recorded” stand apart in the source; their conditions may differ. Read-outs that look alike come from different tables or passages of the source.

Experiments:
[1] = tested on: RH T. gondii; experiment: Plaque assay and IC50 determination; type: cell-based, Toxoplasma gondii; settings: plaque assay, 5 days; for inhibition of T. gondii growth in vitro: 0–40 µM
Protocol: We measured the inhibition of parasite growth by plaque assay as modified from a previously established method ([27], [28]). Confluent monolayers of HFF in six-well plates were inoculated with 1 × 10^2 parasites of RH T. gondii. Immediately after, each well received D10 containing specified concentrations of each compound. Plates were incubated undisturbed for 5 days at 37°C in a humidified incubator with 5% CO2. On the fifth day, each well was rinsed once with phosphate-buffered saline (PBS), fixed with 4% paraformaldehyde (15 min at room temperature), and stained with crystal violet for 2–3 min. Plaques (visualized as irregular clear areas of cell lysis against the violet background of intact host cells) were enumerated for each well. To generate the inhibition curve, plaque numbers (represented as a percentage of plaques relative to the no drug control) were plotted vs drug concentration. The IC50 value was calculated from the inhibitor vs normalized response curve with variable slope. The results represented the average of three independent IC50 assays ± standard error of the mean.

[2] = tested on: HFF host cells; experiment: Host cell viability and TD50 determination; type: cell-based, human; settings: 5 days incubation, tetrazolium assay
Protocol: Confluent monolayers of HFF host cells (approximately 1 × 10^4) plated in clear bottom 96-well plates were treated with twofold dilutions of compounds of interest. After 5 days of incubation, 15 µL of dye solution (tetrazolium salt) was added to each well. The plates were incubated at 37°C for 4 hours; then, the reaction was stopped to solubilize the formazan product (Cell Titer 96 Nonradioactive Cell Proliferation Assay Promega). Absorbance at 570 ʎ (A570) was recorded using a multimode microplate plate reader (Molecular Devices Spectramax i5, SoftMax Pro 7.0.2 Software). The A570 absorbance reading is directly proportional to the number of viable cells. The values are presented as percentages of cell viability relative to the untreated controls (defined as 100% survival) and plotted against the log of compound concentrations. The log (auranofin derivative) vs cell viability curve with variable slope was generated to calculate TD50 values.

[3] = tested on: YFP+ RH parasites (T. gondii) invading HFF; experiment: Invasion assay; type: cell-based, Toxoplasma gondii
Protocol: We performed invasion assays with or without pre-treatment of T. gondii tachyzoites with auranofin, as modified from previously described assays ([28][–][31]). We used RH parasites expressing YFP ([32]). First, we determine the best concentration of auranofin to achieve stable host cell morphology and viability (HFF) while maximizing the effect of auranofin in T. gondii by titration of auranofin (doses ranging from 1 to 5 µM). The best auranofin dose fitting our criteria was 3 µM. Therefore, we performed a modified invasion assay using 2.5 × 10^6 parasites freshly lysed YFP+ RH parasites ([29]) that were filtered and centrifuged before each assay as follows: […]
After the 30-min invasion, all host cells were washed with PBS and fixed with 4% paraformaldehyde, blocked with 3% bovine serum albumin (BSA), and then incubated with anti-SAG-1 antibody (DG52) (David Sibley, Washington University in St. Louis) ([4]) for 1 hour, followed by incubation with goat anti-mouse IgG conjugated to Alexa-594 fluorophore (A19069, Thermo Fisher). For quantification, eight randomly selected fields (with a minimum of 300 parasites) were counted for each sample. […] The invasion rate was calculated by dividing the number of intracellular parasites by the total number of parasites counted.

[4] = tested on: YFP+ RH parasites (T. gondii) in HFF; experiment: Replication assay; type: cell-based, Toxoplasma gondii
Protocol: Confluent HFF monolayers were infected with 5 × 10^5 YFP+ RH parasites in coverslips. Following 1-hour incubation at 37°C to allow for invasion, the monolayer was rinsed with PBS, and D10 in DMSO (control) or auranofin containing (2.5 µM) media was added back. Coverslips were then incubated for 24 hours to allow for parasite replication. Coverslips were then fixed in 4% paraformaldehyde and mounted with DAPI-containing mounting media. Parasites were identified as DAPI+/YFP+ under fluorescence microscopy. The number of parasites per parasitophorous vacuole was counted across 10 random fields of view per coverslip. At least 100 parasitophorous vacuoles (PV) per condition were counted from three independent experiments. Results were grouped into the following categories according to the number of parasites per PV: 1, 2, 4, and >4 parasites. A chi-square trend test was used to determine the statistical difference between the PV category of the control and auranofin treatment from three independent experiments.

[5] = tested on: T. gondii in HFF; experiment: Egress assay (LDH release); type: cell-based, Toxoplasma gondii; settings: 30 hours infection, then 40 min with A23187 5 µM, zaprinast 57 µM or auranofin 5 µM
Protocol: The egress assay was modified from previously published methods to measure lactate dehydrogenase (LDH) content as a function of egress (host membrane damage induced by parasite egress) ([33], [34]). Confluent monolayers of HFF in a 24-well plate were inoculated with 5 × 10^5 parasites (freshly mechanically released by needle and filtered through a 3 µm filter) for 30 hours before each drug treatment in three technical triplicates. These infected HFF monolayers were rinsed with 37°C Ringer’s solution (Ward’s Science) three times and supplied with 5 µM calcium ionophore A23187 (ACROS), 57 µM Zaprinast (Alfa Aesar), 5 µM auranofin (Enzo Life Sciences), or DMSO control (all in 5 µl) for 40 min in 5% CO2 and 37°C. The culture supernatant was collected from wells and centrifuged at 4°C and 500 g for 5 min. The solution was kept at 4°C and assayed immediately for the LDH content. The A490 reading is directly proportional to a known amount of LDH (standard curve) (CytoTox 96 Nonradioactive Cytotoxicity Assay, Promega). Egress induced by each drug is presented as a relative value after subtracting control levels of LDH induced by DMSO alone (the solvent for all drugs included in this assay) from the levels of LDH induced by the drugs. A t-test to determine the statistical difference between the relative egress triggered by auranofin and A23187 or auranofin and Zaprinast from three independent experiments was used.

[6] = tested on: extracellular T. gondii RH parasites; experiment: Parasite size by flow cytometry (forward scatter); type: cell-based, Toxoplasma gondii; settings: auranofin 2.5 µM
Protocol: (§1) A confluent monolayer of HFF was infected with purified RH parasites (freshly mechanically released by needle and filtered through a 3 µm filter). The monolayer remained undisturbed for 24 hours to allow for invasion and replication. On the day of treatment, extracellular parasites were mechanically released and harvested after differential centrifugation ([35]) at 35 × g for 5 minutes to prevent parasite loss before processing. The supernatant was then collected and centrifuged at 1,350 × g for 10 minutes to pellet the extracellular parasites. Parasites were plated in a 12-well plate (2.7 × 10^7 per well) into 1 mL of D10 in DMSO (control) or auranofin (2.5 µM) containing media and incubated for 24–48 hours at 37°C with 5% CO2 before collection.
Parasite size after treatment with auranofin was determined by flow cytometry (forward scattering). At the end of each incubation time, parasites (1 × 10^5) were resuspended in 1 mL of PBS to prepare them for flow cytometry.

[7] = tested on: extracellular T. gondii RH parasites; experiment: Annexin V assay (phosphatidylserine externalization); type: cell-based, Toxoplasma gondii; settings: auranofin 2.5 µM, 24 hours; control 11.2 ± 2.937
Protocol: as §1
Given the smaller size of parasites after auranofin treatment, we evaluated whether T. gondii death occurred by apoptosis via Annexin V assays (Invitrogen). After 24 hours of treatment, parasites were collected, washed with PBS, and resuspended in Annexin binding buffer (10 mM HEPES, 140 mM NaCl, and 2.5 mM CaCl2, pH 7.4) at a concentration of 10^6 parasites per mL. One hundred microliters of this parasite suspension was stained with Annexin V-Alexa fluor conjugate before flow cytometry analysis. A t-test was used to determine the statistical difference between control or auranofin treatment groups from three independent experiments.

[8] = tested on: Leishmania spp. (promastigotes and amastigotes); set-up: method as in PMID 24328400; settings: cited from earlier work
[9] = Fig 7, unit inferred, read-out: IC50
[10] = HFF infected with RH T. gondii, read-out: IC50 (inhibition of parasite growth)

CC(=O)OC[C@H]1O[C@@H]([S-])[C@H](OC(C)=O)[C@@H](OC(C)=O)[C@@H]1OC(C)=O.CCP(CC)CC.[Au+] [Auranofin]
pIC50 [1, 9]: 6.25 | TD50 (cytotoxicity in host cells) [2]: 5.14 µM | invasion rate (T. gondii that successfully invaded host cells) ([3]; parasites pre-treated with auranofin 3 µM for 30 min before invasion, control 35%): 18% | invasion rate (T. gondii that successfully invaded host cells) ([3]; without pre-treatment, auranofin 3 µM during 30 min invasion, control 59%): 60% | host cell monolayer integrity ([4]; HFF monolayer, 24 hours of auranofin treatment): did not show changes in the monolayer integrity | effect on parasite replication (parasites per parasitophorous vacuole) ([4]; auranofin 2.5 µM for 24 hours after 1 hour invasion): did not inhibit parasite replication | relative egress level (LDH, normalized to DMSO) [5]: 0.2768 ± 0.034 | relative egress level (LDH, normalized to DMSO) ([5]; listed as auranofin): 0.2768 ± 0.03435 and 0.3272 ± 0.009 | parasite size (FSC-H) ([6]; 24 hours, control 201.2 ± 4.064): 152.7 ± 8.225 | parasite size (FSC-H) ([6]; 48 hours, control 169.9 ± 66.25): 123.5 ± 7.339 | phosphatidylserine externalization (PS) by Annexin V assay [7]: 29.16 ± 3.615 relative fluorescent units

CNc1ccc2oc(C[C@H]3O[C@@]4(CC[C@H]3C)O[C@H]([C@H](C)C(=O)c3ccc[nH]3)[C@H](C)C[C@H]4C)nc2c1C(=O)O [A23187]
relative egress level (LDH, normalized to DMSO) [5]: 0.4533 ± 0.01148

CCCOc1ccccc1-c1nc2nn[nH]c2c(=O)[nH]1 [Zaprinast, zaprinast]
relative egress level (LDH, normalized to DMSO) [5]: 0.3272 ± 0.009 | relative egress level (LDH, normalized to DMSO) ([5]; listed as zaprinast): 0.2768 ± 0.034

[Cl][Au][PH](Cc1ccccc1)(c1ccccc1)c1ccccc1 [Compound 6]
pIC50 [1, 9]: 6.35 | pIC50 [1, 10]: 6.34 | TD50 (cytotoxicity in host cells) [2]: 4.87 µM

[Cl][Au].c1ccc(P(c2ccccc2)c2ccccc2)cc1 [Compound 31]
pIC50 [1, 10]: 5.85 | TD50 (cytotoxicity in host cells) [2]: 178 µM | toxicity to host cells compared with auranofin [8]: less toxic to host cells than auranofin and compounds 6, 10, and 39 | antiparasitic activity against Leishmania spp. compared with auranofin ([8]; extracellular and intracellular forms): higher IC50 than auranofin

O=C(O)CC([S-])C(=O)O.[Au+] (stereo not drawn) [Aurothiomalate, aurothiomalate]
inhibition of T. gondii growth in vitro [1]: neither aurothioglucose nor aurothiomalate inhibited the growth; also recorded: did not display inhibitory activity

OC[C@H]1O[C@H]([S-])[C@H](O)[C@@H](O)[C@@H]1O.[Au+] [Aurothioglucose, aurothioglucose]
inhibition of T. gondii growth in vitro [1]: did not display inhibitory activity | inhibition of T. gondii growth in vitro ([1]; listed as aurothioglucose): neither aurothioglucose nor aurothiomalate inhibited the growth
